Values joined by “and” are separate entries in the source; they are usually repeats but may differ in a detail not shown here. Identical values can stand only once.
How the values were obtained:
mice = conditions: for median lethal dose: acute toxicity test
[1] = Metabolic stability measured in human liver microsomes; conditions: for half-life at 2 μg/mL: human, pH 7.4; for t1/2 (elimination half-life): human liver microsomes 1.0 mg/ml, compound 2 μg/mL, NADPH 2 mM, pH 7.4, 37° C.
in vivo = conditions: mouse
[2] = test system: rats exposed to cerebral ischemia and reperfusion; test: Cerebral blood flow in rats exposed to cerebral ischemia and reperfusion (tMCAO), laser Doppler; format: in vivo, Sprague Dawley (SD) rats; conditions: for Reperfusion/Postoperative (cerebral blood flow recovery): 2 hours ischemia, 3 mg/kg iv immediately after reperfusion; for Postoperative/Preoperative (cerebral blood flow): blood flow immediately after initiation of ischemia relative to before the operation, drug 3 mg/kg iv given immediately after reperfusion
Protocol: (§1) 1.2 Experimental procedure: Male Sprague Dawley (SD) rats was subjected to operation after experimental adaption for 5-7 days, with a weight of 200-250 g. The rats were anesthetized by intraperitoneal injection of 0.35 mL/100 g 10% chloral hydrate, and positioned on a temperature-controlled, operating surface. The common carotid artery was isolated from surrounding nerves to the bifurication between the external carotid artery and the internal carotid artery. The external carotid artery was then isolated. A sterile middle cerebral artery occlusion (MCAO) suture was advanced through external carotid artery into the internal carotid artery (about 18 mm±0.5 mm from the point of the carotid bifurication), effectively occluding the middle cerebral artery. The suture was withdrawn after 2 hours ischemic period to simulate clinical reperfusion. All rats were scored according to Longa scoring system, in which the rats with a total score less than 1 were withdrawn. The rats were kept on a heating blanket and allowed to recover from anesthesia. A neurobehavioral examination was performed at 24 h after awakening. Blood was drawn from each rat under anesthesia, collected in a tube containing K2-EDTA as anticoagulant for stabilizing the blood samples, centrifuged to separate supernatant from precipitate, and stored at […]. Then the rats were euthanized. The brains were cut into slices, stained with 2,3,5-triphenyltetrazolium chloride (TTC), and used to determine the infarct area. The experiment was complete within 3 days, with 3-4 rats per group daily.
1.3 Intraoperative monitoring: Transcranial measurement of cerebral blood flow was made using […] at three points, namely before the operation, immediately after the initiation of ischemia, and immediately after reperfusion.
(§2) 1.7 Drug preparation: The drugs to be tested were accurately weighed, dissolved in physiological saline to give a final concentration of 1.5 mg/mL.
(§3) 1.8 Administration method: The drugs were removed from the refrigerator and […] to room temperature before the rats were dosed. The dosing volume was 2 mL/kg.
(§4) All data was imported into an Excel worksheet, and expressed as mean±standard error of the mean. Statistical significance was determined by one-way ANOVA with Dunnett's multiple comparison test (*P<0.05, **P<0.01).

[3] = test system: rats exposed to cerebral ischemia and reperfusion; test: Infarct area of rats exposed to cerebral ischemia and reperfusion (tMCAO), TTC staining; format: in vivo, Sprague Dawley (SD) rats; conditions: 3 mg/kg iv immediately after reperfusion; for Cerebral infarction ratio: TTC, infarct area / total brain area; for Percentage inhibition of cerebral infarction: versus model group
Protocol: as §1, §2, §3
1.9.2 Cerebral infarction ratio: The rats were euthanized with chloral hydrate (330 mg/kg anesthesia), given by CO2 inhalation, and blood was drawn by cardiac puncture. The brains were removed from the skull and cut into 2 mm coronal slices using a rat brain matrix. Each slice was stained with 1% TTC at 37° C. for 5 minutes, protected from light, and were photographed. The ratio of infarct area was then determined using an image analysis software Image Pro Plus 6.0. The infarct areas were summed and divided by total brain area to yield the ratio of infarct area.
as §4

[4] = Physical properties of the salts (water absorption); format: physicochemical; conditions: solid salt
Source text: 5. The type of the salt of the compound 5 affects its physical properties. […] In addition, the excess alkali leads to the closed-loop reaction between hydroxyl group and fluorine atom. Potassium hydroxide contacts the compound 12 to yield a potassium salt which is not a solid. […] Therefore, high-purity of potassium salt and sodium salt products are not easy to obtain in this disclosure, which is unfavorable to large-scale production. Therefore, the following compounds are also included in the present invention: […]

in vitro = conditions: human, microsomes, pH 7.4
[5] = text: recovery relative to preoperative, 3 mg/kg

## O=C([O-])c1cc(Br)ccc1C(O)CCCCF.[Na+] (centres unmarked) [Compound 15]
mice
  median lethal dose: 1036 mg
[1]; microsomes
  half-life at 2 μg/mL: 19.1 h
In vivo
  LD50: 1040 mg/kg
[2]; [5]
  Reperfusion/Postoperative (cerebral blood flow recovery): 95.6%
[2]; text: recovery relative to preoperative, listed as compound 15, 3 mg/kg
  Reperfusion/Postoperative (cerebral blood flow recovery): 95.3% and 95.6%
[2]
  Postoperative/Preoperative (cerebral blood flow): 16.8%
[3]; 3 mg/kg
  Cerebral infarction ratio: 12.0%
  Percentage inhibition of cerebral infarction: 75.3%
[3]; listed as compound 15, 3 mg/kg
  Cerebral infarction ratio: 12.0%
  Percentage inhibition of cerebral infarction: 75.3%
[4]
  water absorption in the air: easy to absorb water in the air

## CCCCC(O)c1ccccc1C(=O)[O-].[K+] (centres unmarked) [Potassium butylphthalide]
mice
  median lethal dose: 373 mg
mice; injected via tail vein
  LD50 (median lethal dose): 373 mg/kg
[1]; listed as Potassium Butylphthalide
  t1/2 (elimination half-life): <1 h
[1]; listed as potassium butylphthalide
  t1/2 (elimination half-life): less than 1 h
[3]; 3 mg/kg
  Cerebral infarction ratio: 37.5%
  Percentage inhibition of cerebral infarction: 26.4%
[3]; listed as potassium butylphthalide, 3 mg/kg
  Cerebral infarction ratio: 37.5%
[3]; listed as butylphthalide potassium, 3 mg/kg
  Percentage inhibition of cerebral infarction: 26.4%

## O=C([O-])c1cc(Br)ccc1C(O)CCC1CC1.[Na+] (centres unmarked) [Compound 14]
[1]; human liver microsomes
  half-life at 2 μg/mL: 2.44 h
[2]; recovery relative to preoperative
  Reperfusion/Postoperative (cerebral blood flow recovery): 88.3%
[2]
  Postoperative/Preoperative (cerebral blood flow): 13.5%

## O=C(O)c1cc(Br)ccc1C(O)CCCCF (centres unmarked) [Compound 17]
In vivo; intravenous
  LD50: 1100 mg/kg
[2]; [5]
  Reperfusion/Postoperative (cerebral blood flow recovery): 95.6% and 95.3%
[2]
  Postoperative/Preoperative (cerebral blood flow): 15.5%
[3]
  Cerebral infarction ratio: 11.8%
  Percentage inhibition of cerebral infarction: 77.4%
[4]
  water absorption in the air: no water absorption
In vitro
  half-life at 2 μg/mL: 19.3 h

— US11578049B2, “Benzoic acid compound and method for preparing the same” (Henan Genuine Biotech Co., Ltd., priority 2018, dated 2023)
